Assays:
16HBE140- cells = test: Phage ELISA binding to 16HBE140- cells; type: cell-based, human; details: unfixed cells; for OD 450 nm: 10^10 pfu/ml, average of triplicate wells; for Binding to 16HBE140- cells (in words): phage ELISA
Method: Phage binding to 16HBE140- cells was analyzed using confluent cells grown with DMEM-F12 complete medium in 96-well collagen coated plates (BD Biosciences, San Diego, Calif.) at 37° C. in 5% CO2. The cells were washed with DPBS and phage diluted in DPBS containing 1% BSA (DPBS-BSA) were applied in 100 μl. Bound phage were detected using primary antibody (mouse IgG T7 tail fiber monoclonal antibody diluted 1:2000 in DPBS-BSA) and secondary antibody (goat anti-mouse IgG HRP diluted 1:5000 in DPBS-BSA) followed by detection with OptEIA reagents as above.
Binding of phage T7Select®10-3b displaying Trp cage TC5b (Trp cage) was compared to binding of three phage clones selected from the naïve Trp cage library after 3 rounds of panning against the human bronchial epithelial cell line 16HBE140-. Results represent the average of triplicate wells.

antibody AB167 [1] = test: Phage ELISA for TAG suppression (binding of antibody AB167); parameters: species or system rabbit; details: 10^8 pfu/ml; relative to clone B1 grown in the same host; /B = nonsuppressor BLT5403, /C = suppressor C600CR; average of triplicate wells
Method: (§1) Phage purified by double precipitation with PEG was diluted in Dulbecco's PBS (DPBS) and applied to wells of a 96-well Maxisorp® plate (Nalge Nunc International®, Rochester, N.Y.) and allowed to bind for one hour followed by three washes with 400 μl of OptEIA wash buffer (BD Biosciences) and blocking with 1% BSA in TBS-Tween (0.1%). All washes were done at room temperature with slow orbital shaking. Antibody AB 167 diluted 1:500 was applied in PBS-T containing 1% BSA and allowed to bind for one hour at room temperature then washed five times with 400 μl of wash buffer. Bound antibody was detected with the secondary antibody goat anti-rabbit HRP diluted 1:1000 in PBS-T with 1% BSA applied for one hour and washed five times with 400 μl of wash buffer followed by development with OptEIA reagents according to the manufacturer's directions. Means were compared using Student's t-test.
Growth of phage containing the insert encoding Trp cage TC5b in the host BLT5403 which limits expression to 5 to 10 copies of the peptide, produced clones displaying the expected sequence […] (SEQ ID NO: 530) with a low frequency of mutations (one out of twelve sequenced clones). […] Some of the mutant clones contained the TAG stop codon within the Trp cage sequence and were expected to result in the display of truncated peptides. Two nonsense mutants, E7 which contained a TAG stop codon at Tyr-3 of the Trp cage sequence NL*IQWLKDGGPSSGRPPPS (SEQ ID NOs: 588 and 534, respectively in order of appearance) and E12 which contained a TAG stop codon at Trp-6 of the Trp cage sequence NLYIQ*LKDGGPSSGRPPPS (SEQ ID NOs: 535 and 553, respectively in order of appearance), were chosen to test the effectiveness of the suppressor host C600CR by ELISA. […] Since AB167 is a polyclonal antibody, some binding to the truncated peptides of E7 and E12 was expected with possibly greater binding to E12 because it is three residues longer than E7.
Binding of antibody AB167 to T7Select® 10-3b phage grown in the nonsuppressor host BLT5403 (B) was compared with binding to phage grown in the suppressor host C600CR (C). […] Binding of the antibody to phage mutants E7 and E12 displaying truncated Trp cages grown in B (E7/B and E12/B, respectively) was related to antibody binding to phage clone B I displaying the full length Trp cage on a percentage basis. The phage mutants grown in C (E7/C and E12/C) were likewise related to B1 grown in C. Results represent the average of triplicate wells.

HUVEC cells = test: Cell-based ELISA for cell-specific binding, HUVEC; parameters: species or system human; details: M13 PHD-7 phage clone
Method: (§2) For screening cell-specific binding phage display peptides, confluent HepG2 or HUVEC cells grown in DMEM-F12-complete in a 96-well plate fixed with methanol, stored at 4° C. Applied 250 μl/well of diluted phage and incubated in wells for 1 hour while shaking. Stopped reactions with 75 ul of 1M HCl after ˜5-7 min, read at 450 nm.
(§3) Representative display peptides isolated from panning against either HepG2 or HUVEC cells with the Trp cage and M13 libraries were tested for cell-specific binding. The peptide having the amino acids sequence SIGYLPL (SEQ ID NO: 532) and the peptide having the amino acid sequence LTAELTP (SEQ ID NO: 533) served as positive HepG2 binding controls. The 7-mer display peptide represented by the amino acid sequence HPQ served as a negative binding control.
(§4) Staining by the positive controls was less intense than NLQEFLF (SEQ ID NO: 61).

HepG2 cells [2] = test: Fluorescence microscopy with FITC-labeled phage on HepG2 cells; type: cell-based, human; details: ~e9 pfu per well, 1 hr, visualized at 200×
Method: The phage microscopy protocol is as follows:
1. Grow HepG2 cells on collagen I coated glass chamber slides to 100% confluence.
2. On the day of the experiment, wash cells 3 to 5 times ˜300 μl/well of PBS.
3. Fix with 100 μl/well of methanol (chilled at −20C) for 7 min at room temperature.
4. Wash 3-5 times with ˜300 μl/well of PBS.
5. Apply 10 μl/well (˜e9 pfu) of FITC-labeled M13 phage.
6. Incubate on a rotating platform at room temperature for 1 hr in the dark.
7. Wash 5 times with ˜300 μl/well of PBS.
8. Remove chambers, dry, mount, and visualize at 200×.
as §4

HepG2 cells [3] = test: Cell-based ELISA for cell-specific binding, HepG2; parameters: species or system human; details: methanol-fixed HepG2 cells, M13 PHD-7 phage clones
Method: as §2, §3, §4

antibody AB167 [4] = test: Phage ELISA with antibody AB167 for display of Trp cage TC5b on the phage capsid; type: binding, rabbit; details: 1×10^6, 1×10^7 and 1×10^8 phage per well
Method: as §1
Two negative controls were used. One was the 10-3b vector with no insert and the other was the 10-3b vector containing the S-Tag. All phage were incubated with the AB167 antibody at 1×10^6, 1×10^7 and 1×10^8 phage per well for the ELISA.

antibody AB167 [5] = test: Western analysis of phage lysates with antibody AB167; type: binding, rabbit; details: SDS-PAGE separated proteins, AB167 diluted 1:2500
Method: For Western analysis, phage were purified by double precipitation with PEG and denatured by boiling in Tris-Glycine SDS sample buffer (2×) with 1% beta-mercaptoethanol (BME). A 10 μl sample containing 1×10^11 pfu/ml was loaded into a well of a 1 mm 4% to 20% Tris-Glycine gel (Invitrogen®) and electrophoresed for 1.5 hours at 150 volts (constant voltage) in Tris-Glycine SDS running buffer. The separated proteins were transferred to a PVDF membrane (1.5 hours at room temperature) and blocked with 3% non-fat dry milk in TBS-T (0.05%) for one hour at room temperature. The membrane was probed for two hours with antibody AB167 diluted 1:2500 at room temperature followed by three five minute washes with TBS-T. Goat anti-rabbit HRP diluted 1:5000 was used to detect the bound AB167 antibody. It was incubated with the membrane for one hour at room temperature followed by four 10 minute washes and the membrane was developed with SuperSignal West Femto Maximum Sensitivity Substrate® (Pierce®) according to the manufacturer's instructions. MagicMark XP Western Protein Standards were used for size reference standards.
For the Western blot analysis of Trp cage TC5b expressed with the 10-3b T7Select® vector, proteins in lysates from phage infected cells were separated by SDS-PAGE in Coomasie stained gel. […]

Substance | OD 450 nm (16HBE140- cells) | Percent antibody binding (antibody AB167 [1]) [%] | further results
DAYPQWLFTPGPTSGRPPPL* [624-55-21] | 0.15 |  | 
DPYAQWLQSMGPHSGRPPPR* [624-55-29] | 0.39 |  | Binding to 16HBE140- cells (in words) (16HBE140- cells): demonstrated binding
DRYPQWLNGMGPSSGRPPPN* [624-55-20] | 0.22 |  | 
NL*IQWLKDGGPSSGRPPPS [E7/B] |  | 32 | 
NL*IQWLKDGGPSSGRPPPS [E7/C] |  | 65 | 
NLQEFLF [M13 PHD-7 phage display peptide isolated by panning against HepG2 cells] |  |  | Binding to HUVEC cells (cell-based ELISA) (HUVEC cells): did not bind; Binding/staining of FITC-labeled phage on methanol-fixed HepG2 cells (HepG2 cells [2]): bound; Binding to HepG2 cells (cell-based ELISA) (HepG2 cells [3]): HepG2 specific binding
NLYIQ*LKDGGPSSGRPPPS [E12/B] |  | 50 | 
NLYIQ*LKDGGPSSGRPPPS [E12/C] |  | 62 | 
NLYIQWLKDGGPSSGRPPPS [10-3b/TC5b, reference compound] | 0.22 |  | ELISA signal with antibody AB167 (antibody AB167 [4]): signal was detected; Binding of antibody AB167 to protein of phage lysate (Western blot) (antibody AB167 [5]): contained a protein that bound the Trp cage specific antibody AB167; Binding to 16HBE140- cells (in words) (16HBE140- cells): low
NLYIQWLKDGGPSSGRPPPS [B1/C] |  | 100 | 

Source: patent US7704953B2, “Phage displayed cell binding peptides” (MDRNA, Inc., priority 2006, dated 2010)
